According to paper PMC12720098, “Prolintane analogs as hybrid monoamine transporter ligands: Structural determinants and species differences” (The Journal of Biological Chemistry, 2025):
Where two headings read alike, the source gives them in different places.

Assays:
rDAT = target: T1, rDAT (Rattus norvegicus, UniProt P23977); assay: Uptake inhibition assay ([3H]dopamine) in rat brain synaptosomes; format: biochemical; settings: for DAT/SERT ratio: rat isoform (r), 1/DAT IC50 / 1/SERT IC50
T1 construct: As a means to evaluate transporter activity of prolintane analogs in native tissue preparation; from tissue; host or cells: rat caudate synaptosomes
Description: (§1) Rats were killed by CO2 narcosis and decapitated, then synaptosomes were prepared from brains using standard procedures. In brief, synaptosomes were prepared from caudate tissue for rat DAT (rDAT) assays, or from whole brain minus caudate and cerebellum for rat NET (rNET) and rat SERT (rSERT) assays. Brain tissue was homogenized in ice-cold 10% sucrose followed by centrifugation at 1000g for 10 min. The resulting supernatant containing crude synaptosomes was kept on ice until use in uptake or release procedures. Uptake inhibition and release assays were carried out as previously described ([62], [63]).
(§2) For uptake inhibition assays, 5 nM [^3H]dopamine, 10 nM [^3H]norepinephrine, or 5 nM [^3H]5-HT was used as the radiolabeled transmitter for rDAT, rNET, or rSERT, respectively. To optimize uptake for a single transporter, unlabeled blockers were included that prevented uptake of [^3H]transmitter by competing transporters: 50 nM GBR 12935 was added to NET and SERT assays to block DAT, 100 nM nomifensine was added to SERT assays to block NET. Uptake assays were initiated by adding 100 μl of tissue to 900 μl Krebs-phosphate buffer (126 mM NaCl, 2.4 mM KCl, 0.83 mM CaCl2, 0.8 mM MgCl2, 0.5 mM KH2PO4, 0.5 mM Na2SO4, 11.1 mM glucose, 0.05 mM pargyline, 1 mg/ml bovine serum albumin, and 1 mg/ml ascorbic acid, pH 7.4) containing test drug and [^3H]transmitter. Uptake assays were terminated by rapid vacuum filtration, and retained radioactivity was quantified with liquid scintillation counting.
(§3) Effects of test drugs on release and uptake inhibition were analyzed by nonlinear regression using GraphPad Prism 9 (GraphPad Scientific, San Diego, CA, USA). Concentration–response values for the uptake inhibition and release were fit to the equation, Y(x)=Ymin+Ymax−Ymin/1+10^((LogP50−LogX)·n) , where x is the concentration of the compound tested, Y(x) is the response measured, Ymax is the maximal response, P50 is either IC50 (the concentration that yields half-maximal uptake inhibition response) or EC50 (the concentration that yields half-maximal release response), and n is the Hill slope parameter.

hSERT [1] = target: T2, hSERT (Homo sapiens, UniProt P31645); format: cell-based; settings: for Mean diff, hSERT efflux ± Mon (Šídák's multiple comparisons test): drug alone vs drug + monensin (Mon); for hSERT efflux ± Mon, mean diff: superfusion
T2 construct: expressed in transfected cells
Description: A day prior to the experiment, HEK293 cells stably expressing hSERT or rat SERT (rSERT) were seeded at a density of 100,000 cells per channel into 6 channel flow ibidi slides (Gräfelfing, Germany). On the day of the experiments, cells were preloaded with 0.1 μM [^3H]5-HT at 37 °C, 5% CO2 for 20 min. Subsequently, the slides were transferred to the superfusion apparatus ([59]). Cells were then washed with KHB for 15 min under a constant flow of 0.5 ml/min. Fractions were collected every 2 min in 8 ml vials containing 2 ml scintillation cocktail. Collection began with three baseline fractions using KHB, followed by four additional basal release fractions with KHB, either with or without 10 μM monensin. […] To assess residual radioactivity within the cells, they were lysed with 1% sodium dodecyl sulfate (SDS), and three final fractions were obtained. The measured tritiated substrate in each fraction was expressed as a percentage of the initial tritiated substrate present at the start of that fraction.
(§4) Half-maximal inhibitory concentrations (IC50) were obtained from fitting a sigmoidal dose–response ( Y=Bottom+Top−Bottom/1+10^((LogIC50−X)·HillSlope) ) in GraphPad Prism 10.3.1 (GraphPad Software Inc.). Uptake inhibition data were evaluated by one-way ANOVA followed by Tukey's multiple comparisons test. Release data were analyzed using a two-way ANOVA (batch release) or a mixed-effects model with Geisser-Greenhouse correction (time-dependent traces) employing Šidák correction for comparing differences between compounds with or without the addition of monensin.

rNET = target: T3, rNET (Rattus norvegicus, UniProt Q63380); assay: Uptake inhibition assay ([3H]norepinephrine) in rat brain synaptosomes; format: biochemical
T3 construct: As a means to evaluate transporter activity of prolintane analogs in native tissue preparation; from tissue; host or cells: rat brain synaptosomes (whole brain minus caudate and cerebellum)
Description: as §1, §2, §3

hSERT [2] = target: T2, hSERT; format: cell-based; settings: batch release, % efflux of total uptake, compounds approximately at IC50 concentration
Description: Batch release assays were performed as described previously ([44]). In brief, HEK293 cells stably expressing monoamine transporters were seeded similar to the procedure used for uptake inhibition assays. A day after seeding cells were pre-loaded with 50 μl/well 0.015 μM [^3H]MPP^+ (hDAT, hNET), or 0.08 μM [^3H]5-HT (hSERT) for 20 min at 37 °C. Then cells were washed four times for 3 to 4 min each and further incubated with KHB or KHB + monensin. After 10 min of incubation, two (screening) to four (full traces; hSERT) 2 min incubations were performed to establish a baseline release without substance. […] Each fraction was transferred to an empty well in the 96-well plate. For screening, a known inhibitor (hDAT, hNET: 50 μM GBR12909) and releaser (hDAT, hNET: 10 μM S-(+)-amphetamine) were used as controls. Ultima Gold XR scintillation cocktail was added to the remaining cells, and each well contained a release fraction. The counted radioactivity in the respective fraction was expressed as a percentage of total radioactivity at the start of the fraction.
as §4

T2 sequence (P31645 whole entry, the tested form may be a part): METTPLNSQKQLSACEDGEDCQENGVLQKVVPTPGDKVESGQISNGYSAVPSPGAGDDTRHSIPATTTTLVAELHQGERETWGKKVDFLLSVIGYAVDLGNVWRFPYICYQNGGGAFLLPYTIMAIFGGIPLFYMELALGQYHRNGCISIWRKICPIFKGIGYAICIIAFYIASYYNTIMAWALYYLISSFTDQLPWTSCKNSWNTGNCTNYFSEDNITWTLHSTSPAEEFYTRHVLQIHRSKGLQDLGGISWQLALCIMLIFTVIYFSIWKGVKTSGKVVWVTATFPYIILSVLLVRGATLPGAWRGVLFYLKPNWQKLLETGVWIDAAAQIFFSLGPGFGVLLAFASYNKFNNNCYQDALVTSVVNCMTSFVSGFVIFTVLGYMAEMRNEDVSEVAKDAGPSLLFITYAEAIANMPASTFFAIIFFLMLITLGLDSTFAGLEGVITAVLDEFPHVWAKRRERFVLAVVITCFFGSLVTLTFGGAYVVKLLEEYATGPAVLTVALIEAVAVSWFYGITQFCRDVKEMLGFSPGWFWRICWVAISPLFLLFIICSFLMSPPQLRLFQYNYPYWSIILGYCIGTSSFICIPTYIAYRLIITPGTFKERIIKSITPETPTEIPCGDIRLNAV
T1 sequence (P23977 whole entry, canonical isoform): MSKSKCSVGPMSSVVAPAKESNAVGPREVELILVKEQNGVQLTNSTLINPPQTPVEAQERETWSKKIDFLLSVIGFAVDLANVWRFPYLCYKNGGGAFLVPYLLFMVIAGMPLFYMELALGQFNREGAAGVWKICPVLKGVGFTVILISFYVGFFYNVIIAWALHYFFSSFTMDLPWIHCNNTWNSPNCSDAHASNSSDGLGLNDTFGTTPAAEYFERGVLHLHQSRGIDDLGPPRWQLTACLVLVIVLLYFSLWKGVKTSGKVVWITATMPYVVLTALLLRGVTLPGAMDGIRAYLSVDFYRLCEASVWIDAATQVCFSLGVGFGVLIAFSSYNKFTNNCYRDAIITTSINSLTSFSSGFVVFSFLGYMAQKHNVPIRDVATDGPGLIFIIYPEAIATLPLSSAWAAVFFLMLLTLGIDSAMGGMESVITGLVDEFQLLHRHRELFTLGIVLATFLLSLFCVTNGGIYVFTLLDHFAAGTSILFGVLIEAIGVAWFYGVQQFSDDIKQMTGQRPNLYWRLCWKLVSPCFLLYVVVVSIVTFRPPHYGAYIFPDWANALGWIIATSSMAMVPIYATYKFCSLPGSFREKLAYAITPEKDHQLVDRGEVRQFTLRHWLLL
T3 sequence (Q63380 1-617): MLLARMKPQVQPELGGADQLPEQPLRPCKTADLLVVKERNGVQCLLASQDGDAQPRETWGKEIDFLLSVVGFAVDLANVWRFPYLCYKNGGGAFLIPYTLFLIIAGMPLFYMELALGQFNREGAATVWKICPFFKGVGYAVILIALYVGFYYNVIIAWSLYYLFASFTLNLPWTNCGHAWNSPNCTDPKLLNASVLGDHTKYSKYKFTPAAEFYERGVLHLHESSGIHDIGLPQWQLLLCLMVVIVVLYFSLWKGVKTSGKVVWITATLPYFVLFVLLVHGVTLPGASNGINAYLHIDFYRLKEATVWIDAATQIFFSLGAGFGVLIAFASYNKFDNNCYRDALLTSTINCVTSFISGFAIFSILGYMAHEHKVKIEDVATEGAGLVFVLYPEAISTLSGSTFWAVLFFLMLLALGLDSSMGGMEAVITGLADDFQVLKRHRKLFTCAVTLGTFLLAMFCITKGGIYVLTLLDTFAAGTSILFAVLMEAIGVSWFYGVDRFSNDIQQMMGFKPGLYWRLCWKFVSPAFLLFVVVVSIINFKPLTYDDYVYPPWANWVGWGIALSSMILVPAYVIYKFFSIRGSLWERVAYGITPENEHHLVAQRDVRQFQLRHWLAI

SMILES	IC50 (rDAT) [µM]	DAT/SERT ratio (rDAT)	Mean diff, hSERT efflux ± Mon (Šídák's multiple comparisons test) (hSERT [1]; Row 1 (time fraction))	Mean diff, hSERT efflux ± Mon (Šídák's multiple comparisons test) (hSERT [1]; Row 2 (time fraction))	Mean diff, hSERT efflux ± Mon (Šídák's multiple comparisons test) (hSERT [1]; Row 3 (time fraction))	Mean diff, hSERT efflux ± Mon (Šídák's multiple comparisons test) (hSERT [1]; Row 4 (time fraction))	Mean diff, hSERT efflux ± Mon (Šídák's multiple comparisons test) (hSERT [1]; Row 5 (time fraction))	Mean diff, hSERT efflux ± Mon (Šídák's multiple comparisons test) (hSERT [1]; Row 6 (time fraction))	Mean diff, hSERT efflux ± Mon (Šídák's multiple comparisons test) (hSERT [1]; Row 7 (time fraction))	Mean diff, hSERT efflux ± Mon (Šídák's multiple comparisons test) (hSERT [1]; Row 8 (time fraction))	Mean diff, hSERT efflux ± Mon (Šídák's multiple comparisons test) (hSERT [1]; Row 9 (time fraction))	Mean diff, hSERT efflux ± Mon (Šídák's multiple comparisons test) (hSERT [1]; Row 10 (time fraction))	Mean diff, hSERT efflux ± Mon (Šídák's multiple comparisons test) (hSERT [1]; Row 11 (time fraction))	Mean diff, hSERT efflux ± Mon (Šídák's multiple comparisons test) (hSERT [1]; Row 12 (time fraction))	IC50 (rNET) [µM]	hSERT-mediated efflux, predicted (LS) mean diff, No mon - Mon (hSERT [2])	also measured
CCCC(Cc1cccc(F)c1)N1CCCC1 (stereo not drawn) [3-Fluoroprolintane, 1-[1-(3-fluorophenyl)pentan-2-yl]pyrrolidine]	0.058 ± 0.004	9	0,003889	-0,003000	0,02067	-0,01133	-0,1369	-0,2296	-0,2910	-4,827	-7,510	-7,391	-7,140	-7,011	0.028 ± 0.003	-5.404	–
CCCC(Cc1ccccc1C)N1CCCC1 (stereo not drawn) [2-Methylprolintane, 1-[1-(2-methylphenyl)pentan-2-yl]pyrrolidine]	0.324 ± 0.025	1	–	–	–	–	–	–	–	–	–	–	–	–	0.138 ± 0.013	-4.459	hSERT efflux ± Mon, mean diff (hSERT [1]; Row 1 (2 min fraction 1, baseline KHB)): 0.1289; hSERT efflux ± Mon, mean diff (hSERT [1]; Row 2 (2 min fraction 2, baseline KHB)): 0.1185; hSERT efflux ± Mon, mean diff (hSERT [1]; Row 3 (2 min fraction 3, baseline KHB)): 0.1694; hSERT efflux ± Mon, mean diff (hSERT [1]; Row 4 (fraction 4, KHB with or without 10 μM monensin)): 0.04832; hSERT efflux ± Mon, mean diff (hSERT [1]; Row 5 (fraction 5, KHB with or without 10 μM monensin)): -0.1068; hSERT efflux ± Mon, mean diff (hSERT [1]; Row 6 (fraction 6, KHB with or without 10 μM monensin)): -0.2079; hSERT efflux ± Mon, mean diff (hSERT [1]; Row 7 (fraction 7, KHB with or without 10 μM monensin)): -0.2202; hSERT efflux ± Mon, mean diff (hSERT [1]; Row 8 (fraction 8, compound at IC50 concentration)): -5.467; hSERT efflux ± Mon, mean diff (hSERT [1]; Row 9 (fraction 9, compound at IC50 concentration)): -7.92; hSERT efflux ± Mon, mean diff (hSERT [1]; Row 10 (fraction 10, compound at IC50 concentration)): -7.744; hSERT efflux ± Mon, mean diff (hSERT [1]; Row 11 (fraction 11, compound at IC50 concentration)): -7.355; hSERT efflux ± Mon, mean diff (hSERT [1]; Row 12 (fraction 12, compound at IC50 concentration)): -7.467
CCCC(Cc1ccc(C)cc1)N1CCCC1 (stereo not drawn) [4-Methylprolintane, 1-[1-(4-methylphenyl)pentan-2-yl]pyrrolidine]	0.037 ± 0.003	1.9	-0,002444	0,005667	-0,04278	-0,1390	-0,3006	-0,3681	-0,4242	-4,103	-5,748	-5,723	-5,744	-5,949	0.045 ± 0.005	-4.314	–
